Experimental data as given in EP0034120A1, “Derivatives of phenoxy-phenoxy-carboxylic acids” (CIBA-GEIGY AG, priority 1980, dated 1981).

What was measured:
Type in all cases: in vivo
[1] = tested on: Reis; assay: Herbicidal action, pre-emergent application (greenhouse); set-up: key: 1 Pflanze abgestorben; 2-4 schwere Schädigung; 3: 2-4 schwere Schädigung; 2-4 schwere Schädigung; 5, 6 mittlere Schäden; 5, 6 mittlere Schäden; 7, 8 leichte Schäden; 7, 8 leichte Schäden; 9 Pflanze gedeiht normal, wie unbehandelte Kontrollpflanze; conditions: after 3 weeks
Description: (§1) wurde durchfolgende Versuche ermittelt: Herbizide Wirkung bei Applikation der Wirkstoffe vor dem Auflaufen der Pflanzen (pre-emergent) Im Gewächshaus werden Pflanzensamen in Blumentöpfe von ca. 11 cm Durchmesser gesät. […] Die Töpfe werden dann im Gewächshaus unter optimalen Bedingungen für das Pflanzenwachstum, regelmässiges Bewässern, einer Temperatur von 22-25°C und 50-70% relativer Luftfeuchtigkeit gehalten. Der Versuch wird nach 3 Wochen abgebrochen und der Zustand der Pflanzen gemäss dem folgenden EWRC (European Weed Research Councel) Bewertungsschema registriert: • 1 Pflanze abgestorben • 2-4 schwere Schädigung • 5, 6 mittlere Schäden • 7, 8 leichte Schäden • 9 Pflanze gedeiht normal, wie unbehandelte Kontrollpflanze.

[2] = tested on: Weizen; assay: as above; set-up: key: 1 Pflanze abgestorben; 2-4 schwere Schädigung; 3: 2-4 schwere Schädigung; 2-4 schwere Schädigung; 5, 6 mittlere Schäden; 5, 6 mittlere Schäden; 7, 8 leichte Schäden; 7, 8 leichte Schäden; 9 Pflanze gedeiht normal, wie unbehandelte Kontrollpflanze; conditions: after 3 weeks
Description: as §1

[3] = tested on: abutilon sp; assay: as above; set-up: key: 1 Pflanze abgestorben; 2-4 schwere Schädigung; 3: 2-4 schwere Schädigung; 2-4 schwere Schädigung; 5, 6 mittlere Schäden; 5, 6 mittlere Schäden; 7, 8 leichte Schäden; 7, 8 leichte Schäden; 9 Pflanze gedeiht normal, wie unbehandelte Kontrollpflanze; conditions: after 3 weeks
Description: as §1

[4] = tested on: amarantus retrofl.; assay: as above; set-up: key: 1 Pflanze abgestorben; 2-4 schwere Schädigung; 3: 2-4 schwere Schädigung; 2-4 schwere Schädigung; 5, 6 mittlere Schäden; 5, 6 mittlere Schäden; 7, 8 leichte Schäden; 7, 8 leichte Schäden; 9 Pflanze gedeiht normal, wie unbehandelte Kontrollpflanze; conditions: after 3 weeks
Description: as §1

[5] = tested on: beta vulgaris; assay: as above; set-up: key: 1 Pflanze abgestorben; 2-4 schwere Schädigung; 3: 2-4 schwere Schädigung; 2-4 schwere Schädigung; 5, 6 mittlere Schäden; 5, 6 mittlere Schäden; 7, 8 leichte Schäden; 7, 8 leichte Schäden; 9 Pflanze gedeiht normal, wie unbehandelte Kontrollpflanze; conditions: after 3 weeks
Description: as §1

[6] = tested on: chenopodium sp.; assay: as above; set-up: key: 1 Pflanze abgestorben; 2-4 schwere Schädigung; 3: 2-4 schwere Schädigung; 2-4 schwere Schädigung; 5, 6 mittlere Schäden; 5, 6 mittlere Schäden; 7, 8 leichte Schäden; 7, 8 leichte Schäden; 9 Pflanze gedeiht normal, wie unbehandelte Kontrollpflanze; conditions: after 3 weeks
Description: as §1

[7] = tested on: chrysanthemum l.; assay: as above; set-up: key: 1 Pflanze abgestorben; 2-4 schwere Schädigung; 3: 2-4 schwere Schädigung; 2-4 schwere Schädigung; 5, 6 mittlere Schäden; 5, 6 mittlere Schäden; 7, 8 leichte Schäden; 7, 8 leichte Schäden; 9 Pflanze gedeiht normal, wie unbehandelte Kontrollpflanze; conditions: after 3 weeks
Description: as §1

[8] = tested on: sinapis alba; assay: as above; set-up: key: 1 Pflanze abgestorben; 2-4 schwere Schädigung; 3: 2-4 schwere Schädigung; 2-4 schwere Schädigung; 5, 6 mittlere Schäden; 5, 6 mittlere Schäden; 7, 8 leichte Schäden; 7, 8 leichte Schäden; 9 Pflanze gedeiht normal, wie unbehandelte Kontrollpflanze; conditions: after 3 weeks
Description: as §1

[9] = tested on: viola tricolor; assay: as above; set-up: key: 1 Pflanze abgestorben; 2-4 schwere Schädigung; 3: 2-4 schwere Schädigung; 2-4 schwere Schädigung; 5, 6 mittlere Schäden; 5, 6 mittlere Schäden; 7, 8 leichte Schäden; 7, 8 leichte Schäden; 9 Pflanze gedeiht normal, wie unbehandelte Kontrollpflanze; conditions: after 3 weeks
Description: as §1

[10] = tested on: Baumwollpflanzen der Sorte Deltapine; assay: Desiccation and defoliation action on cotton; conditions: Aufwandmenge 0,6 kg/ha, nach 14 Tagen; only a few dried-up leaves left on the plant
Description: Im Gewächshaus wurden Baumwollpflanzen der Sorte Deltapine in Tontöpfen angezogen. Nach abgeschlossener Kapselbildung wurden sie mit wässrigen Zubereitungen der Wirkstoffe in einer Aufwandmenge, die 1,2, 0,6 und 0,3 kg/ha im Feld entspräche, gespritzt. Unbehandelte Pflanzen wurden als Kontrolle belassen. Die Auswertung des Versuches erfolgte 3, 7 und 14 Tage nach Applikation der Versuchssubstanz durch Bestimmen des Grades an Defoliation (% abgefallene Blätter) und an Dessikation (% Austrocknung der an der Pflanze verbleibenden Blätter).

Structure (SMILES)	Zustand der Pflanzen (EWRC Bewertungsschema) ([1]; Aufwandmenge 2 kg/ha)	Zustand der Pflanzen (EWRC Bewertungsschema) ([1]; Aufwandmenge 4 kg/ha)	Zustand der Pflanzen (EWRC Bewertungsschema) ([2]; Aufwandmenge 2 kg/ha)	Zustand der Pflanzen (EWRC Bewertungsschema) ([2]; Aufwandmenge 4 kg/ha)	Zustand der Pflanzen (EWRC Bewertungsschema) ([3]; Aufwandmenge 2 kg/ha)	Zustand der Pflanzen (EWRC Bewertungsschema) ([3]; Aufwandmenge 4 kg/ha)	Zustand der Pflanzen (EWRC Bewertungsschema) ([4]; Aufwandmenge 2 kg/ha)	Zustand der Pflanzen (EWRC Bewertungsschema) ([4]; Aufwandmenge 4 kg/ha)	Zustand der Pflanzen (EWRC Bewertungsschema) ([5]; Aufwandmenge 2 kg/ha)	Zustand der Pflanzen (EWRC Bewertungsschema) ([5]; Aufwandmenge 4 kg/ha)	Zustand der Pflanzen (EWRC Bewertungsschema) ([6]; Aufwandmenge 2 kg/ha)	Zustand der Pflanzen (EWRC Bewertungsschema) ([6]; Aufwandmenge 4 kg/ha)	Zustand der Pflanzen (EWRC Bewertungsschema) ([7]; Aufwandmenge 2 kg/ha)	Zustand der Pflanzen (EWRC Bewertungsschema) ([7]; Aufwandmenge 4 kg/ha)	Zustand der Pflanzen (EWRC Bewertungsschema) ([8]; Aufwandmenge 2 kg/ha)	Zustand der Pflanzen (EWRC Bewertungsschema) ([8]; Aufwandmenge 4 kg/ha)	Zustand der Pflanzen (EWRC Bewertungsschema) ([9]; Aufwandmenge 2 kg/ha)	Zustand der Pflanzen (EWRC Bewertungsschema) ([9]; Aufwandmenge 4 kg/ha)	Wirkung (Defoliation und Dessikation) [10]
CC(CCC(=O)O)Oc1cc(Oc2ccc(C(F)(F)F)cc2Cl)ccc1Cl (stereo not drawn) [compound 6]	8	8	9	9	2	1	1	1	1	1	1	1	2	1	1	1	1	1	
CCOC(=O)CCC(C)Oc1cc(Oc2ccc(C(F)(F)F)cc2Br)ccc1Cl (stereo not drawn) [compound 16]	9	9	9	9	5	1	2	1	1	1	1	1	1	1	1	1	2	1	90%
CCOC(=O)C=CC(C)Oc1cc(Oc2ccc(C(F)(F)F)cc2Br)ccc1Cl (stereo not drawn) [compound 15]	9	9	9	9	6	2	1	1	2	2	1	1	2	1	4	1	2	1	
CCNC(=O)CCC(C)Oc1cc(Oc2ccc(C(F)(F)F)cc2Cl)ccc1Cl (stereo not drawn) [compound 7]	8	8	9	9	1	1	1	1	1	1	1	1	2	1	1	1	2	1	90%
COC(=O)CC(=O)C(C)Oc1cc(Oc2ccc(C(F)(F)F)cc2Cl)ccc1Cl (stereo not drawn) [compound 3, 4-[3'-(2"-Chlor-4"-trifluormethylphenoxy)-6'-chlorphen-oxy]-propanoylessigsäure-methylester]	7	6	9	9	6	6	1	1	1	1	1	1	1	1	2	1	3	1	90%
